Measured values taken from ChEMBL document CHEMBL1201862, “PubChem BioAssay data set” (2004).
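A five-concentration, 48-hour dose response in 96-well plates underlies each endpoint, interpolated linearly between surrounding concentrations. GI50 = concentration required for 50% inhibition of growth.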 Active and inactive are the calls of the source. No stated cut-off is given here; in the data, active = GI50 up to about 1.1 µM and inactive = higher.

Columns and labels:
Test in all cases: NCI-60 cell line screen, 48 h
[1] = system: ACHN
[2] = system: HT-29
[3] = system: M14
[4] = system: Malme-3M
[5] = system: NCI-H23
[6] = system: NCI-H522
[7] = system: OVCAR-8
[8] = system: SF-268
[9] = system: SF-539
[10] = system: SK-MEL-28
[11] = system: SK-MEL-5
[12] = system: SK-OV-3
[13] = system: UACC-257
[14] = system: UACC-62
[15] = system: UO-31
[16] = system: HOP-62
[17] = system: OVCAR-5

Measured: GI50

O=C(NN1C(=O)C(Cl)C1c1ccc(O)cc1)c1ccccc1O (stereo not given)
inactive: [1] 19.1 µM | [2] 18.4 µM | [3] 22.2 µM | [4] 18.6 µM | [5] 22.2 µM | [6] 18.1 µM | [7] 13.5 µM | [8] 18.8 µM | [9] 23.4 µM | [10] 19.4 µM | [11] 14.6 µM | [12] 25.8 µM | [13] 20.7 µM | [14] 17.2 µM | [15] 15.6 µM

CCCN(CCC)C1=Nc2ccccc2-n2cnnc2C1
inactive: [1] > 100 µM | [16] > 100 µM | [2] > 100 µM | [3] > 100 µM | [4] > 100 µM | [5] > 100 µM | [6] 37.8 µM | [17] > 100 µM | [7] > 100 µM | [8] > 100 µM | [9] > 100 µM | [10] > 100 µM | [11] > 100 µM | [14] > 100 µM | [15] > 100 µM

O=C1c2ccccc2C(=O)N1C/C=N/NS(=O)(=O)c1ccc2ccccc2c1
inactive: [1] > 100 µM | [16] > 100 µM | [2] > 100 µM | [3] > 100 µM | [4] > 100 µM | [5] > 100 µM | [6] > 100 µM | [17] > 100 µM | [7] > 100 µM | [9] > 100 µM | [11] > 100 µM | [12] > 100 µM | [13] > 100 µM | [14] > 100 µM | [15] > 100 µM

O=c1c2ccccc2oc2nccnc12
inactive: [1] > 100 µM | [16] > 100 µM | [2] > 100 µM | [3] > 100 µM | [4] > 100 µM | [5] > 100 µM | [17] > 100 µM | [7] > 100 µM | [8] > 100 µM | [9] > 100 µM | [10] > 100 µM | [11] > 100 µM | [12] > 100 µM | [13] > 100 µM | [14] > 100 µM | [15] > 100 µM

COc1cccc2ccc(C(=O)c3ccccc3)nc12
inactive: [1] > 100 µM | [16] > 100 µM | [3] > 100 µM | [4] > 100 µM | [5] > 100 µM | [6] > 100 µM | [17] > 100 µM | [7] > 100 µM | [8] > 100 µM | [9] > 100 µM | [10] 88.9 µM | [11] > 100 µM | [14] > 100 µM | [15] 2.22 µM
